{
  "source": "patent US8702959B2",
  "about": "“System and method for detecting a substance in liquid” (priority 2009, dated 2014)",
  "key": {"[1]": {"test_system": "E. coli reporter strain panel", "method": "The AP activity was measured electrochemically at potential […] by making use of pAPP in a point assay after induction period. The determined SOS-induction factors for each concentration level are plotted against each other.\nTo increase the capabilities of the reporter cells as genotoxicity bioreporters, a series of knock-out mutations was introduced to the E. coli RFM443's genome. The genes that were selected to be deleted are genes affiliated with DNA repair mechanisms (Nucleotide Exicision Repair, uvrA; DNA Pol V, umuD) and a structural gene that can influence cell permeability (lipopolysaccharide, rfaE). […] The deletion mutations in uvrA and umuD were transferred by P1 transduction. […] From each gene deletion experiment, eight Km^R colonies were chosen and checked for the correct mutation structure by PCR using a combination of locus- and kanamycin-specific primers (Table 1). PCR fragments with the right size of both junctions were sent to sequencing. Sequences were indentified using BLAST program operating on the default options querying the NCBI nucleotide collection database. The construction of double or triple mutants was obtained by the elimination of the resistance using a helper plasmid expressing the FLP recombinase, which acts on the FRT (FLP recognition target) sites flanking the resistance gene. Using the methods described above, a set of mutated reporter strains was constructed as detailed in Table 2. Strains dedicated to harbor the phoA reporter gene were also engineered to contain a deletion in the chromosomal phoA gene to eliminate the possibility of native PhoA activity."}, "[2]": {"test_system": "Salmonella typhimurium TA1535 pSK1002 cells", "test": "Genotoxicity bio-detection of IQ with Salmonella typhimurium umuC'-'lacZ reporter, amperometry on micro-chip", "type": "cell-based", "method": "Salmonella typhimurium TA1535 pSK1002 [Y. Oda et al., Mutat. Res. 147 (1985) 219] cells were used for the IQ bio-detection. The construction of the pSK1002 plasmid was reported in H. Shinagawa et al. Gene. 23 (1983) 167, which is hereby incorporated by reference in its entirety. The exposition of bacteria was done according to Reifferscheid et al. [Reifferscheid et al., Mutat. Res. 253 (1991) 215]. An over night culture of the bacteria was refreshed in 20 ml TGA-medium (1:10 dilution of bacteria) and grown for further 2 h (37° C., 150 rpm). Prior to exposition the optical density (λ=595 nm) of the bacterial culture was adjusted to 0.44 by dilution with TGA medium. […] The OD595 of the exposed mixture was measured after an incubation time of 2 h at 37° C. and 900 rpm in shaking conditions.\nThe activity of the reporter enzyme β-galactosidase in the induced bacteria was measured by making use of the substrate para-Aminophenyl β-D-galactopyranoside (pAPG, 0.5 mM final concentration, Sigma). Shortly after the addition of pAPG, aliquots of 3 μl were introduced into the electrochemical microchambers and a constant potential of 300 mV vs. Ag/AgCl was applied on the electrochemical chamber in order to quantify the enzymatically generated product pAP. The setup was connected in such a way that the output current was monitored (i.e. amperometry measurement)."}, "[3]": {"test_system": "Escherichia coli RFM443/pBR2TTS cells harboring a sulA::phoA fusion", "type": "cell-based", "method": "Escherichia coli RFM443/pBR2TTS cells harboring a sulA::phoA fusion were grown overnight in MOPS growth medium containing 0.1 mg/ml ampicillin with shaking conditions at 37° C. The overnight culture was diluted ×1/100, regrown to an optical density of 0.2 (600 nm). Finally NA (FW 254.22, Sigma) was added to a final concentration of 10 μg/ml. Following further incubation at various times of 0, 60, 90, or 120 minutes under similar conditions, aliquots of 3 μl were introduced into the electrochemical microchambers. Shortly after applying a constant potential of 300 mV vs. Ag/AgCl in the electrochemical chamber, the enzymatic substrate para-Aminophenyl phosphate (pAPP, MW 211.09, diagnoSwiss) was added reaching a concentration of 0.8 mg/ml.\nControl samples were prepared with the addition of growth medium instead of NA or pAPP to the incubation stage in order to verify the influence of NA on the induction of the bacteria and pAPP on the generated bio-electrochemical response."}},
  "data": [
    {"smiles": "OO", "note": "[H2O2, hydrogen peroxide]", "values": [
      {"measurement": "response of the reporter to model genotoxicants", "setting": "[1]; AP activity measured electrochemically at potential 0.3 mV with pAPP, point assay after induction, FIG. 14", "result": "responsive"},
      {"measurement": "response of the uvrA mutant reporter strain", "setting": "[1]; uvrA mutant, FIG. 14", "result": "elevated response"}
    ]},
    {"smiles": "Cn1c(N)nc2c3cccnc3ccc21", "note": "[IQ, 2-Amino-3-methylimidazo[4,5-f]quinoline]", "values": [
      {"measurement": "dependence of the differential slope of the electrochemical current on concentration", "setting": "[2]; IQ 5, 1.25, 0.31 μM activated with S9-fraction, 2 h, pAPG 0.5 mM, 300 mV vs. Ag/AgCl, FIG. 11A", "result": "more rapidly increasing electrochemical current characteristics"},
      {"measurement": "detection by the prototype biosensor", "setting": "[2]; microfluidic whole cell prototype biosensor, genotoxic material", "result": "successfully detected"},
      {"measurement": "response of the reporter strain mutated in uvrA and rfaE genes", "setting": "[1]; following metabolic activation with lyophilized liver S9 fraction, compared with umu-test reporter strain", "result": "responded"}
    ]},
    {"smiles": "CCn1cc(C(=O)O)c(=O)c2ccc(C)nc21", "note": "[NA, Nalidixic acid]", "values": [
      {"measurement": "chrono-amperometric response of E. coli bacteria in the presence of toxicant after pAPP was added", "setting": "[3]; NA 10 μg/ml, 1 hr incubation, pAPP 0.8 mg/ml, 300 mV vs. Ag/AgCl, FIG. 10A", "result": "increasing electrochemical current"},
      {"measurement": "electrochemical current of induced bacteria compared with non-induced bacteria, pAPP added to both", "setting": "[3]; NA 10 μg/ml, 1 hr incubation, pAPP 0.8 mg/ml, FIG. 10A", "result": "more rapidly increasing electrochemical current than non-induced bacteria"},
      {"measurement": "effect of induction time on the slope of the detected electrochemical current", "setting": "[3]; NA 10 μg/ml, induction 0, 60, 90 or 120 minutes, FIGS. 10B-C", "result": "For longer induction times the current increased more rapidly"},
      {"measurement": "detection by the prototype biosensor", "setting": "[3]; microfluidic whole cell prototype biosensor, model toxicant", "result": "successfully detected"},
      {"measurement": "response of the ΔrfaE reporter strains", "setting": "[1]; ΔrfaE mutants, FIG. 14", "result": "respond to lower concentrations"}
    ]}
  ]
}
